Test results published in patent US9328093B2, “Selective inhibitors of ubiquitin specific protease 7, the pharmaceutical compositions thereof and their therapeutic applications” (HYBRIGENICS SA, priority 2010, dated 2016).
pIC50: −log10 of the molar value. Where two headings read alike, the source gives them in different places.

Experiments:
[1] = target: T1, USP7 over a panel of active DUBs (Homo sapiens, UniProt Q93009); assay: HA-Ub-VS labeling of active DUBs in HCT116 cell lysates; type: biochemical; design: endogenous in cells; host or cells: HCT116 (inducible USP7 shRNA line), non-denaturing lysate; settings: for HA-Ub-VS-USP7 protein level: different doses (100 μM to 3 μM), 2 hours
Description: (§1) The C-terminally modified vinyl sulfone derivative of ubiquitin, UbVS, was clearly helpful for a direct visualization of active DUBs in cells. This tool, which binds covalently to the cysteine active site of deubiquitinating enzymes, was successfully applied to discover and characterize novel ubiquitin/ubiquitin-like proteases and to profile active deubiquitinating enzymes in normal, virus-infected, and malignant cells (Borodovsky et al., Chem Biol 2002, 9, 1149-1159, Hemelaar et al., Mol Cell Biol 2004, 24, 84-95, Ovaa et al., Proc Natl Acad Sci USA 2004 101, 2253-2258).
The HA-Ub-VS probe (Hemagglutin tag-Ubiquitin-Vinyl Sulfone) was used in this study to directly visualize the activity of all deubiquitinating enzymes from cell lysates. This tool was used to evaluate the activity/specificity of our small molecule compounds on USP7 relative to all deubiquitinating enzymes active in physiological conditions.
Inducible USP7 shRNA HCT116 cells (previously treated with or without Doxycycline (2 μg/ml) for 4 days) as well as HEK293 cells were harvested and lysed on ice with a non denaturating buffer containing Tris pH7.4, 50 mM; NaCl, 150 mM; MgCl2, 5 mM; EDTA, 0.5 mM; DTT, 2 mM; ATP, 2 mM; NP40, 0.5% and glycerol, 10%. Samples were incubated at 4° C. for 1 hour and clarified. Proteins were then quantified by Bradford method (Bio-Rad Protein Assay). 25 μg of proteins from native cell lysates were treated with compounds of examples 14 and 5 (from 100 μM to 3 μM) or with NEM (N-Ethylmaleimide, a thiol-reactive compound, 5 mM) for 2 hours at room temperature. The ubiquitin labeling reaction was initiated by the addition of HA-Ub-VS (8 μg/ml) in labeling buffer (Tris pH7.6, 50 mM; MgCl2, 5 mM; EDTA, 0.5 mM; DTT, 2 mM; ATP, 2 mM; sucrose, 250 mM) and incubated at room temperature for 30 min. Samples were next heated at 100° C. for 10 minutes and briefly sonicated. They were resolved by SDS-polyacrylamide gel electrophoresis (SDS-PAGE), transferred to a nitrocellulose membrane and probed with antibodies against USP7 (Bethyl Lab, A300-034A), HA (BabCO, MMS-101P), and actin (Sigma, A2066). Horseradish peroxidase (HRP)-conjugated anti-mouse (Jackson Laboratories, 115-035-003) or HRP-conjugated anti-rabbit (Cell Signaling, 7074) antibodies were used as secondary antibodies. Signals were detected by enhanced chemiluminescence (ECL; Amersham) according to the reagent manufacturer's instructions.

[2] = target: T2, USP7 (Homo sapiens, UniProt Q93009); assay: USP7 activity assay (Ub-AMC substrate); type: biochemical; settings: Ub-AMC 300 nM, USP7 100 pM, 30 min pre-incubation
T2 construct: Full-length wild-type human USP7 and its catalytic mutant (cysteine 223 replaced by alanine, C223A) were produced as N-terminally His-tagged fusions; His (N); made in house; host or cells: Spodoptera frugiperda Sf9 (or High Five) insect cells, baculovirus pFastBac-HT-B
Description: The cDNA encoding USP7 was obtained by PCR amplification from placenta mRNA. USP7 cDNA was subcloned by PCR into a baculovirus expression vector (pFastBac-HT; Invitrogen). Full-length wild-type human USP7 and its catalytic mutant (cysteine 223 replaced by alanine, C223A) were produced as N-terminally His-tagged fusions in Spodoptera frugiperda cells (Sf9, Invitrogen), using the Bac-to-Bac Baculovirus system from Invitrogen according to the manufacturer's instructions. pFastBac-HT-B-USP7 was used to transform DH10bac cells (Invitrogen), and blue/white selection was carried out on X-gal/IPTG agar plates. Bacmid DNA was prepared by an alkaline lysis procedure. The integrity of the bacmid minipreps and their orientation were checked by PCR, using generic and specific primers. Sf9 insect cells were cultured in InsectXpress medium (Cambrex) at 27° C. and transfected with the corresponding bacmid, using GeneShuttle 40 (Q-BIOgen). Viruses were recovered in the supernatant 72 h after transfection. Viruses were amplified by infecting insect cells (Sf9 or High Five cells; invitrogen) in 50 ml InsectXpress medium in a 150 cm^2 cell culture flask with 500 μl of the supernatant from transfected Sf9 cells. Following the second round of amplification, infected cells were recovered by rapid SDS lysis, boiled for 5 min at 100° C., sonicated briefly and centrifuged for 20 min at 14,000 g. Expression levels in infected Sf9 cells were compared with those in uninfected cells. Fusion proteins were then allowed to bind to TALON beads (BD Biosciences, TALON metal affinity resin) for 30 min at 4° C. with gentle rocking. Beads were extensively washed (50 mM sodium phosphate buffer pH 7.0, 500 mM NaCl, 10 mM Imidazole, 0.5% Triton X-100 and 10% glycerol) and bound proteins were eluted in wash buffer supplemented with 250 mM Imidazole (Sigma). Eluted fractions were resolved on 4-12% NuPAGE gels (Novex, Invitrogen). Fractions containing high concentrations of purified proteins (purity >95%) were dialyzed (20 mM Tris HCl pH 7.6, 200 mM NaCl, 1 mM DTT, 1 mM EDTA and 10% glycerol) were aliquoted and snap frozen in liquid nitrogen before storage at −80° C.
USP7 was diluted in USP buffer (50 mM Tris HCl; 0.5 mM EDTA; 5 mM DTT; 0.01% Triton X-100; Bovine Serum Albumin 0.05 mg·ml^−1 pH7.6). Compounds stocks (10 mM) were stored at −20° C. in DMSO. Compounds were tested at different concentrations: from 200 μM to 91 nM.
Reactions were performed as duplicates in Black 384 well plates (small volumes microplates; Greiner; 10 μl final reaction volume). The substrate concentration for USP7 was 300 nM Ub-AMC (Chem. Biol., 2003, 10, p. 837-846) (Boston Biochem). The concentrations of the enzyme (USP7) in specificity assays was 100 pM. The concentrations were determined in order to perform specificity assays under initial velocities at fixed substrate concentration. Compounds were pre-incubated with enzymes for 30 minutes at 25° C. Reactions were initiated by addition of substrate to the plates containing the enzymes (+/− compounds) diluted in assay buffer. Reactions were incubated for 60 minutes at 37° C. Reactions were stopped by adding acetic acid (100 mM final). Readings were performed on a Pherastar Fluorescent Reader (BMG). λ
Emission 380 nm; λ Excitation=460 nm. Data (mean values +/− standard deviation) were analyzed as % of control (no compound) and plotted as percentage versus the Log of the compound concentration using GraphPad (Prism). Data were fitted to a sigmoidal model (variable slope).

[3] = system: HCT116 colon cancer cells; assay: HCT116 cell viability and proliferation assay (MTS); type: cell-based; settings: HCT116, 72 hours, read-out: Cell viability (MTS): HCT116 GI50 Day3
Experimental: HCT116 colon cancer cells were obtained from ATCC (American Type Culture Collection), and maintained in Mc Coy's 5A medium containing 10% FBS, 3 mM glutamine and 1% penicillin/streptomycin. Cells were incubated at 37° C. in a humidified atmosphere containing 5% CO2.
Cell viability was assayed using the MTS technique in 96-well culture plates (CellTiter 96® Aqueous Non-Radioactive Cell Proliferation Assay, Promega) according to the manufacturer's instructions. MTS (3-(4,5-dimethyl-thiazol-2-yl)-5-(3-carboxy-methoxyphenyl)-2-(4-sulfophenyl)-2H-tetra-zolium) is a MTT-derived tetrazolium that is reduced in metabolically active cells into a soluble, cell-permeant formazan. The amount of formazan, detected by its absorbance at 492 nm is proportional to the number of living, metabolically active cells.
10^3 HCT116 cells were seeded per well. 24 hours later, the medium was changed and the cells treated in triplicate with the concentrations of each compound from 100 μM to 50 nM. The compounds were diluted in 100% DMSO, whose final concentration on cells was kept at 0.5%.
Cells were incubated with the compounds for 72 hours, and their viability then assayed by the addition of MTS for 2 hours. Absorbance at 492 nm was measured directly from the 96-well culture plates. Gl50 (Growth Inhibition 50) concentrations for each compound were calculated using a sigmoidal variable slope fit (Prism 4.0, Graphpad Softwares). Values represent mean of three independent experiments.

[4] = target: T1, USP7 over a panel of active DUBs; assay: HA-Ub-VS labeling of active DUBs in HEK293 cell lysates; type: biochemical; settings: different doses
Description: as §1
The HA-Ub-VS probe (Hemagglutin tag-Ubiquitin-Vinyl Sulfone) was used in this study to directly visualize the activity of all deubiquitinating enzymes from cell lysates. […]
Inducible USP7 shRNA HCT116 cells (previously treated with or without Doxycycline (2 μg/ml) for 4 days) as well as HEK293 cells were harvested and lysed on ice with a non denaturating buffer containing Tris pH7.4, 50 mM; NaCl, 150 mM; MgCl2, 5 mM; EDTA, 0.5 mM; DTT, 2 mM; ATP, 2 mM; NP40, 0.5% and glycerol, 10%. […] Proteins were then quantified by Bradford method (Bio-Rad Protein Assay). […] Signals were detected by enhanced chemiluminescence (ECL; Amersham) according to the reagent manufacturer's instructions.

T1 sequence (Q93009 whole entry): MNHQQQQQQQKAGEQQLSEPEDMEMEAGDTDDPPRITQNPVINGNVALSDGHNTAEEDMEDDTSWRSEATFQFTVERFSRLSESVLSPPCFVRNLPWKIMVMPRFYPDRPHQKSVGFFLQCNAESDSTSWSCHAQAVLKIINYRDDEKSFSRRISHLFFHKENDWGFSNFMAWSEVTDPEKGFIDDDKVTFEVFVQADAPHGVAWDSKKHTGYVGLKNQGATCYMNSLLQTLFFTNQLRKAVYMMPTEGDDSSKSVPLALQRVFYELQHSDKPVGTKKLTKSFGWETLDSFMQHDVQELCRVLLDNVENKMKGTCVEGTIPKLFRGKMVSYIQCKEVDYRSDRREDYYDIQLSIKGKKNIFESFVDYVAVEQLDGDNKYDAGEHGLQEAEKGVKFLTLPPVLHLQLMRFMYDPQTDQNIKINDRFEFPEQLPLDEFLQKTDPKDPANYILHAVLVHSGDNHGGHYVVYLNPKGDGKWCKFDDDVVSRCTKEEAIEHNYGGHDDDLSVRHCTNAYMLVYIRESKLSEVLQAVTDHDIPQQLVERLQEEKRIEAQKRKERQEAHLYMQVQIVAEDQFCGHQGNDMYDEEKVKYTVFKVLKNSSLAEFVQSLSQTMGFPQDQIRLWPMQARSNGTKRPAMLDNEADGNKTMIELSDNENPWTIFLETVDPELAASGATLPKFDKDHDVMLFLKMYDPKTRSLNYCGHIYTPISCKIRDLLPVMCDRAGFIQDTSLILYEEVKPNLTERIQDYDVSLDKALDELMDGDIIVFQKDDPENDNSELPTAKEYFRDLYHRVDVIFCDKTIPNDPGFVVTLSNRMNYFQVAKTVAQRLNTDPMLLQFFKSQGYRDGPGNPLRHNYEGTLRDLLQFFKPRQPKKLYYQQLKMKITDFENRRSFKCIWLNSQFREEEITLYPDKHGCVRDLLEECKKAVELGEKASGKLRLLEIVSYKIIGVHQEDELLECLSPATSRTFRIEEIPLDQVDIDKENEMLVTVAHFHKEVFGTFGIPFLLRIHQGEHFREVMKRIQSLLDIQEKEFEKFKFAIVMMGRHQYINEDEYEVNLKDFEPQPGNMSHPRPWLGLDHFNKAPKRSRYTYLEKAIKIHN

Structure (SMILES): CCN1C(=O)C=CC1=O [NEM, N-Ethylmaleimide, reference compound]
- HA-Ub-VS labeling of the active form of DUBs ([1]; NEM 5 mM): inhibited

Structure (SMILES): CCN(CC)CCNC(=O)c1ccc2c(Cl)c3c(nc2c1)CCCC3 [Example 26, chlorhydrate of 9-chloro-5,6,7,8-tetrahydro-acridine-3-carboxylic acid (2-diethylamino-ethyl)-amide]
- pIC50 [2]: 4.52
- GI50 [3]: 5.6 µM

Structure (SMILES): CCN(CCCNC(=O)c1ccc2c(Cl)c3c(nc2c1)CCCC3)Cc1ccccc1 [Example 5, 9-Chloro-5,6,7,8-tetrahydro-acridine-3-carboxylic acid [3-(benzyl-ethyl-amino)-propyl]-amide]
- HA-Ub-VS-USP7 protein level [4]: also confirmed
- HA-Ub-VS-USP7 protein level [1]: specific and dose-dependent decrease
- GI50 ([3]; Homo sapiens, HCT-116, 72 h): 4 µM

Structure (SMILES): CN(CCCNC(=O)c1ccc2c(Cl)c3c(nc2c1)CCCC3)Cc1ccccc1 [Example 14, 9-Chloro-5,6,7,8-tetrahydro-acridine-3-carboxylic acid [3-(benzyl-methyl-amino)-propyl]-amide]
- HA-Ub-VS-USP7 protein level [4]: also confirmed
- HA-Ub-VS-USP7 protein level [1]: specific and dose-dependent decrease
- HA-Ub-VS labeled DUB bands after treatment ([1]; fixed dose 50 μM, anti-HA immunoblot): only one band was decreased
- GI50 ([3]; Homo sapiens, HCT-116, 72 h): 4.1 µM
